Values of other authors, collected in PMC6323428, “Elucidation of the Intestinal Absorption Mechanism of Loganin in the Human Intestinal Caco-2 Cell Model” (Evidence-based Complementary and Alternative Medicine : eCAM, 2018).

Test system: human intestinal Caco-2 cells
Design: method as in PMID 27531366
Conditions: Caco-2 cells model, chiefly passive diffusion; cited from earlier work

## COC(=O)C1=CO[C@@H](O[C@@H]2O[C@H](CO)[C@@H](O)[C@H](O)[C@H]2O)[C@@H]2C(CO)=CC[C@H]12 [geniposide]
  Intestinal permeability (in words): good
